Data reported in ChEMBL document CHEMBL1152959, “Design, synthesis and dopamine D4 receptor binding activities of new N-heteroaromatic 5/6-ring Mannich bases” (Bioorg Med Chem, 2009).

What was measured:
[1] = molecular target: D(1A) dopamine receptor (Sus scrofa) (UniProt P50130); assay: Displacement of [3H]SCH23390 from pig dopamine D1 receptor at 100 nM
D(2) dopamine receptor [2] = molecular target: T1, D(2) dopamine receptor (Homo sapiens, UniProt P14416); assay: Displacement of [3H]spiperone from human cloned dopamine D2 long receptor expressed in CHO cells at 100 nM; type: cell-based
T1 sequence (P14416 whole entry): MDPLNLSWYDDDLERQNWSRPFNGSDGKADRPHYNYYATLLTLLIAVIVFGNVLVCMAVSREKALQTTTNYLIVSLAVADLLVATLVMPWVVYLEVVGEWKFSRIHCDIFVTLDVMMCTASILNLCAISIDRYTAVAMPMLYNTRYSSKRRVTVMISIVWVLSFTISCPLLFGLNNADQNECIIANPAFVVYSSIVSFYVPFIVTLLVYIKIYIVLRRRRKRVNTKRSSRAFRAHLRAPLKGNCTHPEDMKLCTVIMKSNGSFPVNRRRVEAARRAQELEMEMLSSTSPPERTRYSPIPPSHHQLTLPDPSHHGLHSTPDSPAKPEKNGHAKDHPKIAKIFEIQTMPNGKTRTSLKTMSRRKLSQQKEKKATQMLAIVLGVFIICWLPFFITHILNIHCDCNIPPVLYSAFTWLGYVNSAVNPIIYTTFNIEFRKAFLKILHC

[3] = molecular target: T2, D(4) dopamine receptor (Homo sapiens) (UniProt P21917); assay: Displacement of [3H]spiperone from human cloned dopamine D4.4 receptor expressed in CHO cells at 100 nM; type: cell-based
T2 sequence (whole entry): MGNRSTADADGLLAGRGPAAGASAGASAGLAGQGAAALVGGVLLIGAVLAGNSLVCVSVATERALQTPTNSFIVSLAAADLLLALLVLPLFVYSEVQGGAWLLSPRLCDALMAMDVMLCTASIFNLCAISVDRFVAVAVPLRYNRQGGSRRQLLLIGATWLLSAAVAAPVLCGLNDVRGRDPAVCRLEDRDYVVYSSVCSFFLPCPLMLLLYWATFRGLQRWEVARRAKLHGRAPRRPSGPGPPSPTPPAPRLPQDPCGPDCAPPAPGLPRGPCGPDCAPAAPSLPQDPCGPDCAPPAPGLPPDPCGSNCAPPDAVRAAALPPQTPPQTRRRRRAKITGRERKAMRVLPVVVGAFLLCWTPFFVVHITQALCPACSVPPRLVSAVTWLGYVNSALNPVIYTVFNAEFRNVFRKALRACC

D(4) dopamine receptor = molecular target: T3, D(4) dopamine receptor (Homo sapiens, UniProt P21917); assay: Displacement of [3H]spiroperidol from human cloned dopamine D4.4 receptor expressed in CHO cells; type: cell-based
T3 sequence (P21917 whole entry): T2 sequence (whole entry)

D(1A) dopamine receptor = D(1A) dopamine receptor (Bos taurus, UniProt Q95136)
Sequence of D(1A) dopamine receptor (Q95136 whole entry): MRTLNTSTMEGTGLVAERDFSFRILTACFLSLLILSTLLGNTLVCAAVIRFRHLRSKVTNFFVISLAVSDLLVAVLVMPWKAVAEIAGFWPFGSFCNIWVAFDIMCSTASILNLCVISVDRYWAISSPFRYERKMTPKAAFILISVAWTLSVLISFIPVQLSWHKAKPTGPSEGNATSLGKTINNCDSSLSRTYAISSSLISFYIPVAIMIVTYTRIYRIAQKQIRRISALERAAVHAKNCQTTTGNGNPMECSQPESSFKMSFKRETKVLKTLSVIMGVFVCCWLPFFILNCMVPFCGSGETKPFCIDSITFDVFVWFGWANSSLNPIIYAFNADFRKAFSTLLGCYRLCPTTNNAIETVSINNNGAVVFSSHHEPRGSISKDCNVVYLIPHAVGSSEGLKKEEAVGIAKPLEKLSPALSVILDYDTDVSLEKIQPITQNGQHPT
Description: Displacement of [3H]SCH23390 from bovine dopamine D1 receptor

D(2) dopamine receptor [4] = molecular target: T1, D(2) dopamine receptor; assay: biochemical
Description: Displacement of [3H]SCH23390 from human cloned dopamine D2 long receptor expressed in CHO cells

D(2) dopamine receptor [5] = molecular target: T1, D(2) dopamine receptor; assay: biochemical; remark: listed apart in the source
Description: Displacement of [3H]spiroperidol from human cloned dopamine D2 short receptor expressed in CHO cells

D(3) dopamine receptor = D(3) dopamine receptor (Homo sapiens, UniProt P35462); assay: biochemical
Sequence of D(3) dopamine receptor (P35462 whole entry): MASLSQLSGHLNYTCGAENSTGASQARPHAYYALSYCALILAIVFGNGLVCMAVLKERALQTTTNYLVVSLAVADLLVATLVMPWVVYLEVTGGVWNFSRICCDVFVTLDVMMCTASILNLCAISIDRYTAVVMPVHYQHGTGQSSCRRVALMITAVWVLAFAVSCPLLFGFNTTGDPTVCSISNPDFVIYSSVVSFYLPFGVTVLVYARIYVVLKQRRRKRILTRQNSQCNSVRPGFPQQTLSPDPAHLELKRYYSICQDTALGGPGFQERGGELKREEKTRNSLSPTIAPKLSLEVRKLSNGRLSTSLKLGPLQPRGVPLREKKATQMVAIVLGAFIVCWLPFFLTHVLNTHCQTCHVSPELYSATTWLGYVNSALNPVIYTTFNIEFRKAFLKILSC
Description: Displacement of [3H]spiroperidol from human cloned dopamine D3 receptor expressed in CHO cells

Sequence of D(1A) dopamine receptor (Sus scrofa) (P50130 whole entry): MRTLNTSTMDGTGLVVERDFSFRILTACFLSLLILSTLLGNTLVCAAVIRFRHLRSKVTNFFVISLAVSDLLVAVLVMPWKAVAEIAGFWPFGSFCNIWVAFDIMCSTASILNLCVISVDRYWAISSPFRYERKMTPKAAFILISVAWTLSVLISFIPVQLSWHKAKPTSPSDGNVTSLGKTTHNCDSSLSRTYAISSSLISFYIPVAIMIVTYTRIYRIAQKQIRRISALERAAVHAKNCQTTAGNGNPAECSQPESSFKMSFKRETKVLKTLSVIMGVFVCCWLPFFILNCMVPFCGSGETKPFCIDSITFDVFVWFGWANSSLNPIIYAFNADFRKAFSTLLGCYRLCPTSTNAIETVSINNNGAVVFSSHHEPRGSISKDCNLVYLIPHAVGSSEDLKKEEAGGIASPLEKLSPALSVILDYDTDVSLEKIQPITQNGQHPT

Row | Activity [1] | Activity (D(2) dopamine receptor [2]) | Activity [3] | Ki (D(4) dopamine receptor) | Ki (D(1A) dopamine receptor) | Ki (D(2) dopamine receptor [4]) | Ki (D(2) dopamine receptor [5]) | Ki (D(3) dopamine receptor) | SMILES
1 | – | – | – | 2.8 nM | 790 nM | 270 nM | 150 nM | 310 nM | Cn1c(N2CCCC2)nc2c(CN3CCN(c4ccccn4)CC3)c[nH]c2c1=O
2 | 0% | 0% | 20% | – | – | – | – | – | Cc1cc2ncc(CN3CCN(c4ccccc4)CC3)n2cn1
3 | 0% | 0% | 0% | – | – | – | – | – | COc1ccc(N2CCN(Cc3c(C)[nH]c4nc(N(C)C)ncc34)CC2)cc1
4 | – | – | – | 16 nM | 160 nM | 840 nM | 400 nM | 630 nM | Cn1c(N2CCCC2)nc2c(CN3CCN(c4ccc(F)cc4)CC3)c[nH]c2c1=O
5 | 0% | 0% | 0% | – | – | – | – | – | COc1ccc(N2CCN(Cc3cnc4cc(C)ncn34)CC2)cc1
6 | 0% | 0% | 60% | 14 nM | 8400 nM | 2300 nM | 2900 nM | 3400 nM | COc1ccccc1N1CCN(Cc2c(C)nc3cc(C)nc(C)n23)CC1
7 | 0% | 0% | 0% | – | – | – | – | – | Cc1cc2ncc(CN3CCN(c4ccc(Cl)cc4)CC3)n2cn1
8 | – | – | – | 3.4 nM | 1500 nM | 570 nM | 380 nM | 480 nM | Cn1c(N2CCCC2)nc2c(CN3CCN(c4ccc(Cl)c(Cl)c4)CC3)c[nH]c2c1=O
9 | 0% | 0% | 0% | – | – | – | – | – | COc1ccccc1N1CCN(Cc2cnc3cc(C)ncn23)CC1
10 | 0% | 0% | 0% | – | – | – | – | – | Cc1cc2ncc(CN3CCN(c4ccccc4)CC3)n2c(C)n1
11 | 0% | 0% | 0% | – | – | – | – | – | COc1ccc(N2CCN(Cc3cnc4cc(C)nc(C)n34)CC2)cc1
12 | – | – | – | 25 nM | 520 nM | 1100 nM | 730 nM | 2700 nM | Cn1c(N2CCOCC2)nc2c(CN3CCN(c4ccccc4)CC3)c[nH]c2c1=O
13 | – | – | – | 66 nM | 11000 nM | 1300 nM | 570 nM | 1500 nM | COc1ccccc1N1CCN(Cc2cnc3cc(C)nc(C)n23)CC1
14 | 0% | 0% | 40% | – | – | – | – | – | Cc1cc2nc(C)c(CN3CCN(c4ccccn4)CC3)n2cn1
15 | 0% | 0% | 0% | – | – | – | – | – | Cc1cc2nc(C)c(CN3CCN(c4ccccc4)CC3)n2cn1
16 | – | – | – | 66 nM | 7100 nM | 26000 nM | 57000 nM | 3100 nM | Cc1cc2nc(C)c(CN3CCN(c4ccc(Cl)cc4)CC3)n2c(C)n1
17 | 0% | 0% | 0% | – | – | – | – | – | Cc1cc2ncc(CN3CCN(c4ccccn4)CC3)n2cn1
18 | – | – | – | 3.8 nM | 250 nM | 390 nM | 180 nM | 330 nM | Cn1c(N2CCCC2)nc2c(CN3CCN(c4ccccc4)CC3)c[nH]c2c1=O

More lines, now with the values behind:

Row | SMILES | Activity [1] | Activity (D(2) dopamine receptor [2]) | Activity [3] | Ki (D(4) dopamine receptor) | Ki (D(1A) dopamine receptor) | Ki (D(2) dopamine receptor [4]) | Ki (D(2) dopamine receptor [5]) | Ki (D(3) dopamine receptor)
19 | COc1ccc(N2CCN(Cc3c(C)nc4cc(C)ncn34)CC2)cc1 | 0% | 0% | 60% | 12 nM | 27000 nM | 9100 nM | 13000 nM | 13000 nM
20 | COc1cc2ncc(CN3CCN(c4ccccc4OC)CC3)n2c(OC)n1 | 0% | 0% | 20% | – | – | – | – | –
21 | COc1ccc(N2CCN(Cc3cnc4ccncn34)CC2)cc1 | 0% | 0% | 0% | – | – | – | – | –
22 | Cc1cc2ncc(CN3CCN(c4ccc(Cl)cc4)CC3)n2c(C)n1 | 0% | 0% | 0% | – | – | – | – | –
23 | Cc1cc2nc(C)c(CN3CCN(c4ccc(F)cc4)CC3)n2c(C)n1 | – | – | – | 360 nM | 12000 nM | 4700 nM | 3500 nM | 22000 nM
24 | Cc1cc2ncc(CN3CCN(c4ccc(Cl)c(Cl)c4)CC3)n2cn1 | 0% | 0% | 0% | – | – | – | – | –
25 | CCOC(=O)c1nc2cc(C)nc(C)n2c1CN1CCN(c2ccc(OC)cc2)CC1 | 0% | 0% | 0% | – | – | – | – | –
26 | Cc1cc2nc(C)c(CN3CCN(c4ccc(Cl)c(Cl)c4)CC3)n2cn1 | 0% | 0% | 20% | – | – | – | – | –
27 | COc1ccccc1N1CCN(Cc2c(C)[nH]c3nc(N(C)C)ncc23)CC1 | 0% | 20% | 80% | 6.4 nM | 6800 nM | 2600 nM | 2900 nM | 6100 nM
28 | CCOC(=O)c1nc2cc(C)nc(C)n2c1CN1CCN(c2ccccc2OC)CC1 | 0% | 0% | 0% | – | – | – | – | –
29 | COc1ccc(N2CCN(Cc3cnc4cc(OC)nc(OC)n34)CC2)cc1 | 0% | 20% | 0% | – | – | – | – | –
30 | Cc1cc2nc(C)c(CN3CCN(c4ccc(Cl)cc4)CC3)n2cn1 | 0% | 0% | 0% | – | – | – | – | –
31 | Cc1cc2nc(C)c(CN3CCN(c4ccccn4)CC3)n2c(C)n1 | – | – | – | 120 nM | 22000 nM | 17000 nM | 10000 nM | 640 nM
32 | Cc1cc2nc(C)c(CN3CCN(c4ccc(Cl)c(Cl)c4)CC3)n2c(C)n1 | – | – | – | 21 nM | 2100 nM | 3300 nM | 5500 nM | 1300 nM
33 | COc1ccccc1N1CCN(Cc2cc3c(=O)[nH]c(N(C)C)nc3[nH]2)CC1 | 20% | 20% | 60% | 2.4 nM | 8400 nM | 130 nM | 170 nM | 960 nM
34 | COc1ccc(N2CCN(Cc3c(C)nc4cc(C)nc(C)n34)CC2)cc1 | 0% | 0% | 0% | 960 nM | 6600 nM | 260 nM | 160 nM | 8.5 nM
35 | Cc1cc2ncc(CN3CCN(c4ccccn4)CC3)n2c(C)n1 | 0% | 0% | 0% | – | – | – | – | –
36 | Clc1nccc2c(CN3CCN(c4ccccc4)CC3)c[nH]c12 | – | – | – | 6.4 nM | 6800 nM | 2600 nM | 2900 nM | 6100 nM
37 | Cc1cc2ncc(CN3CCN(c4ccc(Cl)c(Cl)c4)CC3)n2c(C)n1 | 0% | 0% | 0% | – | – | – | – | –
38 | COc1ccccc1N1CCN(Cc2c(C)nc3cc(C)ncn23)CC1 | 0% | 0% | 20% | 39 nM | 59000 nM | 40000 nM | 53000 nM | 67000 nM
39 | Cc1cc2nc(C)c(CN3CCN(c4ccccc4)CC3)n2c(C)n1 | – | – | – | 70 nM | 11000 nM | 8600 nM | 11000 nM | 4200 nM
